How the values were obtained:
adenosine A1 receptor = molecular target: T1, adenosine A1 receptor (Rattus norvegicus, UniProt P25099); test: Adenosine Receptor Binding - A1 Receptor Affinity (RBA 1), [3H]-CHA displacement; details: rat whole brain membranes, 1.0 nM [3H]-CHA, one hour at 25°C
T1 construct: Whole brain minus cerebellum and brainstem from male Long Evans rats (150-200 g) was homogenized; from tissue; host or cells: rat whole brain minus cerebellum and brainstem (membrane homogenate)
T1 sequence (P25099 1-326): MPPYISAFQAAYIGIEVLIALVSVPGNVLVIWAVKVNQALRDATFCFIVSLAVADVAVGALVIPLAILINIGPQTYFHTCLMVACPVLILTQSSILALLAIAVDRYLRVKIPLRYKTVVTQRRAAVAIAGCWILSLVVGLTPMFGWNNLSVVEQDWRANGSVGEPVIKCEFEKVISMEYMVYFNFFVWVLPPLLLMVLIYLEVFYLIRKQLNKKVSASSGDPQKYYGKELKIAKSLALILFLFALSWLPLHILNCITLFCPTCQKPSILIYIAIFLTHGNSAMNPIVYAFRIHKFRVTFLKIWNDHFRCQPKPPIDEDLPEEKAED
Description: Whole brain minus cerebellum and brainstem from male Long Evans rats (150-200 g) was homogenized in 30 volumes of ice-cold 0.05 M Tris-HCI buffer pH 7.7 using a Brinkman Polytron PT-10, (setting number 6 for 20 seconds) and centrifuged for ten minutes at 20,000 x g (Sorvall RC-2), 4°C. The supernatant was discarded, and the pellet was resuspended and centrifuged as before. The pellet was resuspended in 20 ml Tris-HCI buffer containing two International Units/ml of adenosine deaminase (Sigma Type III from calf intestinal mucosa), incubated at 37°C for 30 minutes, then subsequently at 0°C for ten minutes. The homogenate was again centrifuged, and the final pellet was resuspended in ice-cold 0.05 M Tris-HCI buffer pH 7.7 to a concentration of 20 mg/ml original wet tissue weight and used immediately.
Tissue homogenate (10 mg/ml) was incubated in 0.05 M Tris-HCI buffer pH 7.7 containing 1.0 nM [^3H]-N^6-cyclohexyladenosine (^3H]-CHA) with or without test agents in triplicate for one hour at 25°C. Incubation volume was 2 ml. Unbound [^3H]-CHA was separated by rapid filtration under reduced pressure through Whatman glass fiber (GF/B) filters. The filters were rinsed three times with 5 ml of ice cold 0.05 M Tris-HCI buffer pH 7.7. The radio-labele ligand retained on the filter was measured by liquid scintillation spectrophotometry after shaking the filters for one hour or longer on a mechanical shaker in 10 ml of Beckman Ready-Solv HP scintillation cocktail.
Nonspecific binding was defined as the binding which occurred in the presence of 1 mM theophylline. The concentration of test agent which inhibited 50% of the specific binding (IC50) was determined by nonlinear computer curve fit. The Scatchard plot was calculated by linear regression of the line obtained by plotting the amount of radioligand bound (pmoles/gram of tissue) versus
• bound radioligand • free radioligand Since the amount of radioligand bound was a small fraction of the total amount added, free radioligand was defined as the concentration (nM) of radioligand added to the incubation mixture. The Hill coefficient was calculated by linear regression of the line obtained by plotting the log of the bound radioligand vs the log of the • bound radioligand • Bmax - bound radioligand • The maximal number of binding sites (Bmax) was calculated from the Scatchard plot.

adenosine A2 receptor = molecular target: T2, adenosine A2 receptor (Rattus norvegicus, UniProt P30543); test: Adenosine Receptor Binding - A2 Receptor Affinity (RBA2), [3H]NECA displacement in striatal membranes; details: 4 nM [3H]NECA, 50 nM N6-cyclopentyladenosine, 60 minutes at 25°C, read-out: RBA-2 (IC50, A2 receptor affinity)
T2 construct: Brains were thawed and then kept on ice while the striata were dissected out; tissue Pel-Freez (Rogers, Arkansas); host or cells: rat striatum (membranes)
Description: Brains from 200-500 g mixed sex Sprague-Dawley rats were purchased from Pel-Freez (Rogers, Arkansas). Fresh brains from male Long-Evans hooded rats (Blue Spruce Farms, Altamont, NY) gave essentially identical results. Brains were thawed and then kept on ice while the striata were dissected out. Striata were disrupted in 10 vol of ice-cold 50 mM Tris·HCl (pH 7.7 at 25°C, pH 8.26 at 5°C) (Tris) for 30 seconds in a Polytron PT―10 (Brinkmann) at setting 5. The suspension was centrifuged at 50,000 xg for ten minutes, the supernatant discarded, the pellet resuspended in 10 vol ice-cold Tris as above, recentrifuged, resuspended at 1 g/5 ml, and stored in plastic vials at -70°C (stable for at least six months). When needed, tissue was thawed at room temperature, disrupted in a Polytron, and kept on ice until used.
All incubations were for 60 minutes at 25°C in 12 x 75 mm glass tubes containing 1 ml Tris with 5 mg original tissue weight of rat weight of rat striatal membranes, 4 nM [^3H]-N-ethyl adenosine-5'-carboxamide ([^3H]NECA), 50 nM N^s-cyclopentyladenosine (to eliminate A1 receptor binding), 10 mM MgCI2, 0.1 units/ml of adenosine deaminase and 1% dimethylsulfoxide. N^6-Cyclopentyladenosine was dissolved at 10 mM in 0.02 N HCI and diluted in Tris. Stock solutions and dilutions of N^6-cyclopentyladenosine could be stored at -20°C for several months. Test compounds were dissolved at 10 mM in dimethylsulfoxide on the same day as the experiment, and diluted in dimethylsulfoxide to 100x the final incubation concentration. Control incubations received an equal volume (10 µl) of dimethylsulfoxide; the resulting concentration of dimethylsulfoxide had no effect on binding. [^3H]NECA was diluted to 40 nM in Tris. The membrane suspension (5 mg/0.79 ml) contained sufficient MgC12 and adenosine deaminase to give 10 mM and 0.1 units/ml, respectively, final concentration in the incubation. […] After all additions, the rack of tubes was vortexed, and the tubes were then incubated for 60 min at 25°C in a shaking water bath. The rack of tubes was vortexed an additional time halfway through the incubation.
Incubations were terminated by filtration through 2.4 cm GF/B filters under reduced pressure. Each tube was filtered as follows: the contents of the tube were poured onto the filter, 4 ml of ice-cold Tris were added to the tube and the contents poured onto the filter, and the filter was washed twice with 4 ml of ice-cold Tris. The filtration was complete in about 12 seconds. Filters were put in scintillation vials, 8 ml of Formula 947 scintillation fluid added, and the vials left overnight, shaken, and counted in a liquid scintillation counter at 40% efficiency.
Nonspecific binding was defined as binding in the presence of […] N^6-cyclopentyladenosine, and specific binding was defined as total binding minus nonspecific binding. The IC50 was calculated by weighted nonlinear least squares curve-fitting to the mass action equation. [formula] • where Y is cpm bound • T is cpm total binding without drug • S is cpm specific binding without drug • D is the concentration of drug • and K is the IC50 of the drug Weighting factors were calculated under the assumption that the standard deviation was proportional to the predicted value of Y. Nonspecific binding was treated as a very large (infinite) concentration of drug in the computer analysis.

T2 sequence (P30543 whole entry): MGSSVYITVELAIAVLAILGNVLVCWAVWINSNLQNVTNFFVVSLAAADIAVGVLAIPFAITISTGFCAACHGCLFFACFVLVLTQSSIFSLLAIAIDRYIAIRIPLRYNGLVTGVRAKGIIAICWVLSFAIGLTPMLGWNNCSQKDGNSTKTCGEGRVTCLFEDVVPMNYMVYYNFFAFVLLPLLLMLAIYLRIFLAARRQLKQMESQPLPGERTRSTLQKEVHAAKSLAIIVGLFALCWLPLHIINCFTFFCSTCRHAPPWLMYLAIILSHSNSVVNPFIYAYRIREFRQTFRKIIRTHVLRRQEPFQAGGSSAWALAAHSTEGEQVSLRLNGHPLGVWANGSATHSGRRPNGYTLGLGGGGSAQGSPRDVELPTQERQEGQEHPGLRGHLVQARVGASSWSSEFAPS

- IC50 (adenosine A1 receptor): 188 nM
- IC50 (adenosine A2 receptor): 1540 nM
SMILES: Cc1ccc(C(C)C)c2c1CC(Nc1ncnc3c1ncn3[C@@H]1O[C@H](CO)[C@@H](O)[C@H]1O)CO2 (some centres unmarked) [Example 12, N^6-[8-lsopropyl-5-methyl-3-chromanylamino]adenosine]

— patent EP0181109B1, “N6-benzopyrano- and benzothiopyrano-adenosines” (WARNER-LAMBERT COMPANY, priority 1984, dated 1986)
